Experimental data taken from patent US20090215893A1, “Parakeratosis inhibitor, pore-shrinking agent,or rough skin preventing/ameliorating agent, and external composition for skin” (Shiseido Company Ltd, priority 2005, published 2009).

Experiments:
[1] = tested on: pores of the cheeks of healthy human males; experiment: Human pore-shrinking effect (replica assessment of cheek pores); assay type: in vivo; conditions: for Replica assessment (average of n = 5): twice a day for one month, pore size rating 1-13, after application minus before application, control 0.3; for pore-shrinking effect: summary of Table 2, concentrations as in Table 2
Description: An experiment was conducted whereby a sample was applied twice a day for one month to the cheeks of healthy human males in groups of 5 men each. Aqueous solutions (containing 15 mass % of ethanol) of 3 mass % of the α-amino acid derivative or a salt thereof were prepared as the evaluation sample. The pH was regulated by hydrochloric acid or sodium hydroxide so as to be 7.0 to 7.5. When sample solubility was low, the solution was prepared accordingly. The control was an aqueous 15% ethanol solution. The sample aqueous solution and control aqueous solution were applied to one half of the face at a time.
A replica was collected before and after continuous application, and changes in the shape of the pores at the same site were observed using a three-dimensional laser scanning microscope. The size of the pores was macroscopically evaluated in 13 steps of 1 through 13 (with the pores becoming larger as the numbers became larger), the difference in the ratings before and after application (after application-before application) was calculated, and the efficacy of each sample was studied using this difference as the replica assessment.

[2] = tested on: back of hairless mice (HR-1), 10 mass % oleic acid applied; experiment: Inhibiting effect against rough skin induced by oleic acid application (transepidermal water loss); assay type: in vivo; parameters: ΔTEWL value: unit not given here; conditions: for ΔTEWL value: three days, average of four animals, rough skin worse as value increases, control 12.0; for ΔTEWL value compared with the control aqueous solution / rough skin preventing/ameliorating effect: summary of Table 3, concentrations as in Table 3
Description: In order to investigate the inhibiting effect of α-amino acid derivatives and salts thereof against rough skin induced by oleic acid application, the transepidermal water loss (TEWL value) before and after application was measured, the difference was compared with the control (control aqueous solution), and the effect was determined. Sample preparation and the application method were in accordance with Example 1. The TEWL was determined using the TM210 TEWA Meter (Courage+Khazaka Electronic GmBH).
100 μL of 10 mass % oleic acid (solvent: ethanol) was applied to the back of hairless mice (HR-1, four mice per group). Then a sample solution (α-amino acid derivatives, and the like) was applied 100 μL at a time. This procedure was continued for three days. The following day, the TEWL value of the back was determined and the values of the four animals were averaged. Rough skin became worse as the ΔTEWL value increased.

[3] = tested on: back of a hairless mouse (HR-1), 10 mass % oleic acid applied; experiment: Parakeratosis-inhibiting effect tests: oleic acid applied to hairless mouse back, macroscopic rough skin evaluation and parakeratosis value; assay type: in vivo; conditions: for Macroscopic evaluation (average of four animals): 100 μL after oleic acid, three days, rough skin score 0.0 (no redness) to 2.0 (control); for Parakeratosis value (average of four animals): tape-stripped stratum corneum, hematoxylin, range 1.0 to 3.0, higher = parakeratosis advanced, control 2.0; for parakeratosis value / parakeratosis-inhibiting effect / rough skin preventing effect, based on stratum corneum peeling and redness: summary of Table 1, concentrations as in Table 1
Description: Aqueous solutions (containing 30 mass % of ethanol) of primarily 3 mass % of an α-amino acid derivative or salt thereof were prepared as the evaluation sample. The pH was regulated by hydrochloric acid or sodium hydroxide so as to be 7.0 to 7.5. When sample solubility was low, the solution was prepared accordingly.
100 μL of 10 mass % oleic acid solution (solvent: ethanol) were applied to the back of a hairless mouse (HR-1; Hoshino Laboratory Animals). Then the sample solution (α-amino acid derivative, and the like) was applied 100 μL at a time. This procedure was continued for three days. […] The status of the skin was evaluated in 0.25-point intervals, with skin where the control (control aqueous solution) had been applied being 2.0 and skin where there was no redness being 0.0. At the same time, the stratum corneum at the back of the hairless mouse was peeled off with tape, the nuclei were stained by hematoxylin, and the degree of parakeratosis was observed and evaluated by a parakeratosis value within a range of 1.0 to 3.0 (in 0.25 increments).

[4] = tested on: cheek of a panel of 20 women; experiment: Sensory irritation tests; assay type: in vivo, human; conditions: for Evaluation (sensory irritation, class of average rating): 1 mL on cheek, evaluated for ten minutes, 20 women; for sensory irritation: summary of Table 4, β-alanine at 3%
Description: 1 mL of a control aqueous solution and the sample aqueous solution prepared in Example 1 were applied using a cotton swab to the left or right cheek, respectively, of a panel of 20 women, the irritating sensation was evaluated every 30 seconds for ten minutes beginning immediately after application, and a final evaluation was reported. The evaluation of the irritating sensation was based on the following four steps of rating criteria, the average rating was calculated, and the average was classified by the following criteria.
3: Discontinued because of extremely strong irritation, such as stinging sensation, burning sensation, tickling sensation, itching, and the like.
2: Intolerable strong irritation, such as stinging sensation, burning sensation, tickling sensation, itching, and the like.
1: Tolerable with only slight stinging sensation, burning sensation, tickling sensation, itching, and the like.
0: Not particularly irritating.
A: average rating of less than 0.2
B: average rating of 0.2 to less than 1.0
C: average rating of 1.0 to less than 2.0
D: average rating of 2.0 or greater

## CCNC(CO)C(=O)O (racemic) [N-ethyl-DL-serine]
[1]; sample 3 mass %
  Replica assessment (average of n = 5): −1.3
[1]
  pore-shrinking effect: seen
[2]; sample 3 mass %
  ΔTEWL value: 7.8
[2]
  ΔTEWL value compared with the control aqueous solution / rough skin preventing/ameliorating effect: significantly lower
[3]; sample 3 mass %
  Macroscopic evaluation (average of four animals): 1.5
  Parakeratosis value (average of four animals): 1.5
[3]
  parakeratosis value / parakeratosis-inhibiting effect: reduced
  rough skin preventing effect, based on stratum corneum peeling and redness: seen
[4]; sample 3 mass %
  Evaluation (sensory irritation, class of average rating): A (average rating of less than 0.2)
[4]
  sensory irritation: no problems

## CN[C@H](CO)C(=O)O [N-methyl-D-serine]
[1]; sample 3 mass %
  Replica assessment (average of n = 5): −1.5
[1]
  pore-shrinking effect: seen
[2]; sample 3 mass %
  ΔTEWL value: 8.0
[2]
  ΔTEWL value compared with the control aqueous solution / rough skin preventing/ameliorating effect: significantly lower
[3]; sample 3 mass %
  Macroscopic evaluation (average of four animals): 1.4
  Parakeratosis value (average of four animals): 1.5
[3]
  parakeratosis value / parakeratosis-inhibiting effect: reduced
  rough skin preventing effect, based on stratum corneum peeling and redness: seen
[4]; sample 3 mass %
  Evaluation (sensory irritation, class of average rating): A (average rating of less than 0.2)
[4]
  sensory irritation: no problems

## CN[C@@H](CO)C(=O)O [N-methyl-L-serine]
[1]; sample 3 mass %
  Replica assessment (average of n = 5): −1.2
[1]
  pore-shrinking effect: seen
[2]; sample 3 mass %
  ΔTEWL value: 7.9
[2]
  ΔTEWL value compared with the control aqueous solution / rough skin preventing/ameliorating effect: significantly lower
[3]; sample 3 mass %
  Macroscopic evaluation (average of four animals): 1.3
  Parakeratosis value (average of four animals): 1.2
[3]
  parakeratosis value / parakeratosis-inhibiting effect: reduced
  rough skin preventing effect, based on stratum corneum peeling and redness: seen
[4]; sample 3 mass %
  Evaluation (sensory irritation, class of average rating): A (average rating of less than 0.2)
[4]
  sensory irritation: no problems

## C[C@H](NS(=O)(=O)c1ccccc1)C(=O)O [N-benzenesulfonyl-L-alanine]
[1]; sample 1.5 mass %
  Replica assessment (average of n = 5): −0.9
[1]
  pore-shrinking effect: seen
[2]; sample 1.5 mass %
  ΔTEWL value: 7.2
[2]
  ΔTEWL value compared with the control aqueous solution / rough skin preventing/ameliorating effect: significantly lower
[3]; sample 1.5 mass %
  Macroscopic evaluation (average of four animals): 1.2
  Parakeratosis value (average of four animals): 1.3
[3]
  parakeratosis value / parakeratosis-inhibiting effect: reduced
  rough skin preventing effect, based on stratum corneum peeling and redness: seen
[4]; sample 1.5 mass %
  Evaluation (sensory irritation, class of average rating): A (average rating of less than 0.2)
[4]
  sensory irritation: no problems

## O=C(N[C@@H](CO)C(=O)O)OCc1ccccc1 [N-carbobenzoyloxy-L-serine]
[1]; sample 3 mass %
  Replica assessment (average of n = 5): −1.2
[1]
  pore-shrinking effect: seen
[2]; sample 3 mass %
  ΔTEWL value: 6.7
[2]
  ΔTEWL value compared with the control aqueous solution / rough skin preventing/ameliorating effect: significantly lower
[3]; sample 3 mass %
  Macroscopic evaluation (average of four animals): 1.2
  Parakeratosis value (average of four animals): 1.1
[3]
  parakeratosis value / parakeratosis-inhibiting effect: reduced
  rough skin preventing effect, based on stratum corneum peeling and redness: seen
[4]; sample 3 mass %
  Evaluation (sensory irritation, class of average rating): A (average rating of less than 0.2)
[4]
  sensory irritation: no problems

## CCNC(C)C(=O)O (racemic) [N-ethyl-DL-alanine]
[1]; sample 3 mass %
  Replica assessment (average of n = 5): −0.5
[1]
  pore-shrinking effect: seen
[2]; sample 3 mass %
  ΔTEWL value: 8.2
[2]
  ΔTEWL value compared with the control aqueous solution / rough skin preventing/ameliorating effect: significantly lower
[3]; sample 3 mass %
  Macroscopic evaluation (average of four animals): 1.6
  Parakeratosis value (average of four animals): 1.5
[3]
  parakeratosis value / parakeratosis-inhibiting effect: reduced
  rough skin preventing effect, based on stratum corneum peeling and redness: seen
[4]; sample 3 mass %
  Evaluation (sensory irritation, class of average rating): A (average rating of less than 0.2)
[4]
  sensory irritation: no problems

## C[C@@H](NS(=O)(=O)c1ccccc1)C(=O)O [N-benzenesulfonyl-D-alanine]
[1]; sample 1.5 mass %
  Replica assessment (average of n = 5): −1.2
[2]; sample 1.5 mass %
  ΔTEWL value: 7.0
[3]; sample 1.5 mass %
  Macroscopic evaluation (average of four animals): 1.3
  Parakeratosis value (average of four animals): 1.4
[4]; sample 1.5 mass %
  Evaluation (sensory irritation, class of average rating): A (average rating of less than 0.2)
